Laboratory results as given in US20090239841A1, “Diaryl Ureas as CB1 Antagonists” (priority 2004, published 2009).

Molecular target: T1, hCB1 (Homo sapiens, UniProt P21554)
T1 construct: made in house; host or cells: Sf9 insect cells (baculovirus), P2 membranes
Test: Agonist-induced GTP binding (GTPγ35S) assay at CB1, Example 8
Format: biochemical
Settings: IC50 at CB1, determined as described in Example 8; read-out: IC50
Procedure, shortened: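 Antagonism read as inhibition of 1 nM CP55,940-stimulated GTPγ35S ([…]) binding, compounds at 10^−10 to 10^−5 M. Baculovirus-infected Sf9 membranes bearing hCB1 plus G-protein subunits, 60 min room-temperature incubation with 5 μM GDP. Filtration and scintillation counting; data as percent over basal.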

T1 sequence (P21554 whole entry): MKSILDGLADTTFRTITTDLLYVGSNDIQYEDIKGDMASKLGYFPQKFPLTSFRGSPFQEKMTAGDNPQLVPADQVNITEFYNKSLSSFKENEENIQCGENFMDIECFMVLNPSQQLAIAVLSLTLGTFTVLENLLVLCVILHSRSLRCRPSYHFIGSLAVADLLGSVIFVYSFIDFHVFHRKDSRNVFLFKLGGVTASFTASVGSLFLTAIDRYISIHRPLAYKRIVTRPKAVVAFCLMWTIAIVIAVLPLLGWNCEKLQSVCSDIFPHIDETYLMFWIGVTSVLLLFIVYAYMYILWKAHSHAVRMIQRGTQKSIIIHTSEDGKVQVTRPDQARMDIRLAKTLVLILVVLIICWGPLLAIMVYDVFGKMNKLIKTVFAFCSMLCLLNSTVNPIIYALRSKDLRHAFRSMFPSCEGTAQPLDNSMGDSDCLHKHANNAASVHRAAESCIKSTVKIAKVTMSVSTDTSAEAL

Row | IC50 [nM] | SMILES
1 | < 2000 | CC(=O)c1cccc(NC(=O)Nc2cccc(OC(C)C)c2)c1 [Compound 419, 1-(3-acetylphenyl)-3-(3-isopropoxyphenyl)urea]
2 | < 2000 | CC(=O)c1ccc(NC(=O)Nc2cccc(OC(C)C)c2)cc1 [Compound 420, 1-(4-acetylphenyl)-3-(3-isopropoxyphenyl)urea]
3 | < 2000 | CC(C)Oc1ccc(NC(=O)Nc2ccc(C#N)cc2)cc1 [Compound 421, 1-(4-cyanophenyl)-3-(4-isopropoxyphenyl)urea]
4 | < 2000 | CC(C)Oc1ccc(NC(=O)Nc2cccc(C#N)c2)cc1 [Compound 422, 1-(3-cyanophenyl)-3-(4-isopropoxyphenyl)urea]
5 | < 2000 | CC(=O)c1cccc(NC(=O)Nc2ccc(OC(C)C)cc2)c1 [Compound 423, 1-(3-acetylphenyl)-3-(4-isopropoxyphenyl)urea]
6 | < 2000 | CC(=O)c1ccc(NC(=O)Nc2ccc(OC(C)C)cc2)cc1 [Compound 424, 1-(4-acetylphenyl)-3-(4-isopropoxyphenyl)urea]
7 | < 2000 | CC(=O)c1cccc(NC(=O)Nc2cccc(OC(F)F)c2)c1 [Compound 425, 1-(3-acetylphenyl)-3-[3-(difluoromethoxy)phenyl]urea]
8 | < 2000 | CC(=O)c1ccc(NC(=O)Nc2cccc(OC(F)F)c2)cc1 [Compound 426, 1-(4-acetylphenyl)-3-[3-(difluoromethoxy)phenyl]urea]
9 | < 2000 | CC(=O)c1ccc(NC(=O)Nc2ccc(OC(F)F)cc2)cc1 [Compound 427, 1-(4-acetylphenyl)-3-[4-(difluoromethoxy)phenyl]urea]
10 | < 2000 | CC(=O)c1cccc(NC(=O)Nc2ccc(C)c(F)c2)c1 [Compound 449, 1-(3-acetylphenyl)-3-(3-fluoro-4-methylphenyl)urea]
11 | < 2000 | CC(=O)c1ccc(NC(=O)Nc2ccc(C)c(F)c2)cc1 [Compound 450, 1-(4-acetylphenyl)-3-(3-fluoro-4-methylphenyl)urea]
12 | < 2000 | CC(=O)c1ccc(NC(=O)Nc2ccc(F)c(C)c2)cc1 [Compound 451, 1-(4-acetylphenyl)-3-(4-fluoro-3-methylphenyl)urea]
13 | < 2000 | CC(=O)c1cccc(NC(=O)Nc2ccc3c(c2)CCC3)c1 [Compound 455, 1-(3-acetylphenyl)-3-(2,3-dihydro-1H-inden-5-yl)urea]
14 | < 2000 | CC(=O)c1cccc(NC(=O)Nc2ccc(C)c(Cl)c2)c1 [Compound 458, 1-(3-acetylphenyl)-3-(3-chloro-4-methylphenyl)urea]

Second part, the compound before the results:

Row | SMILES | IC50 [nM]
15 | Cc1ccc(NC(=O)Nc2ccc(F)cc2)cc1C [Compound 428, 1-(3,4-dimethylphenyl)-3-(4-fluorophenyl)urea] | < 2000
16 | Cc1ccc(NC(=O)Nc2cccc(F)c2)cc1F [Compound 429, 1-(3-fluoro-4-methylphenyl)-3-(3-fluorophenyl)urea] | < 2000
17 | Cc1ccc(NC(=O)Nc2ccc(F)cc2)cc1F [Compound 430, 1-(3-fluoro-4-methylphenyl)-3-(4-fluorophenyl)urea] | < 2000
18 | O=C(Nc1cccc(F)c1)Nc1ccc2c(c1)CCC2 [Compound 431, 1-(2,3-dihydro-1H-inden-5-yl)-3-(3-fluorophenyl)urea] | < 2000
19 | O=C(Nc1ccc(F)cc1)Nc1ccc2c(c1)CCC2 [Compound 432, 1-(2,3-dihydro-1H-inden-5-yl)-3-(4-fluorophenyl)urea] | < 2000
20 | Cc1ccc(NC(=O)Nc2cccc(F)c2)cc1Cl [Compound 433, 1-(3-chloro-4-methylphenyl)-3-(3-fluorophenyl)urea] | < 2000
21 | Cc1ccc(NC(=O)Nc2ccc(F)cc2)cc1Cl [Compound 434, 1-(3-chloro-4-methylphenyl)-3-(4-fluorophenyl)urea] | < 2000
22 | Cc1ccc(NC(=O)Nc2ccccc2)cc1Cl [Compound 435, 1-(3-chloro-4-methylphenyl)-3-phenylurea] | < 2000
23 | CCc1ccc(NC(=O)Nc2ccc(C)c(C)c2)cc1 [Compound 436, 1-(3,4-dimethylphenyl)-3-(4-ethylphenyl)urea] | < 2000
24 | Cc1ccc(NC(=O)Nc2ccc(Cl)cc2)cc1C [Compound 437, 1-(4-chlorophenyl)-3-(3,4-dimethylphenyl)urea] | < 2000
25 | CCc1cccc(NC(=O)Nc2ccc(C)c(F)c2)c1 [Compound 438, 1-(3-ethylphenyl)-3-(3-fluoro-4-methylphenyl)urea] | < 2000
26 | CCc1ccc(NC(=O)Nc2ccc(C)c(F)c2)cc1 [Compound 439, 1-(4-ethylphenyl)-3-(3-fluoro-4-methylphenyl)urea] | < 2000
27 | CCc1ccc(NC(=O)Nc2ccc(F)c(C)c2)cc1 [Compound 440, 1-(4-ethylphenyl)-3-(4-fluoro-3-methylphenyl)urea] | < 2000
28 | CCc1ccc(NC(=O)Nc2ccc(F)c(F)c2)cc1 [Compound 441, 1-(3,4-difluorophenyl)-3-(4-ethylphenyl)urea] | < 2000
29 | CCc1ccc(NC(=O)Nc2ccc3c(c2)CCC3)cc1 [Compound 442, 1-(2,3-dihydro-1H-inden-5-yl)-3-(4-ethylphenyl)urea] | < 2000
30 | O=C(Nc1ccc(Cl)cc1)Nc1ccc2c(c1)CCC2 [Compound 443, 1-(4-chlorophenyl)-3-(2,3-dihydro-1H-inden-5-yl)urea] | < 2000
31 | CCc1ccc(NC(=O)Nc2ccc(C)c(Cl)c2)cc1 [Compound 444, 1-(3-chloro-4-methylphenyl)-3-(4-ethylphenyl)urea] | < 2000
32 | Cc1ccc(NC(=O)Nc2ccc(Cl)cc2)cc1Cl [Compound 445, 1-(3-chloro-4-methylphenyl)-3-(4-chlorophenyl)urea] | < 2000
33 | CCc1ccc(NC(=O)Nc2ccc(Cl)c(C)c2)cc1 [Compound 446, 1-(4-chloro-3-methylphenyl)-3-(4-ethylphenyl)urea] | < 2000
34 | Cc1ccc(NC(=O)Nc2cccc(C#N)c2)cc1C [Compound 447, 1-(3-cyanophenyl)-3-(3,4-dimethylphenyl)urea] | < 2000
35 | Cc1ccc(NC(=O)Nc2cccc(C#N)c2)cc1F [Compound 448, 1-(3-cyanophenyl)-3-(3-fluoro-4-methylphenyl)urea] | < 2000
36 | CC(=O)c1ccc(NC(=O)Nc2ccc(F)c(F)c2)cc1 [Compound 452, 1-(4-acetylphenyl)-3-(3,4-difluorophenyl)urea] | < 2000
37 | N#Cc1ccc(NC(=O)Nc2ccc3c(c2)CCC3)cc1 [Compound 453, 1-(4-cyanophenyl)-3-(2,3-dihydro-1H-inden-5-yl)urea] | < 2000
38 | N#Cc1cccc(NC(=O)Nc2ccc3c(c2)CCC3)c1 [Compound 454, 1-(3-cyanophenyl)-3-(2,3-dihydro-1H-inden-5-yl)urea] | < 2000
39 | CC(=O)c1ccc(NC(=O)Nc2ccc3c(c2)CCC3)cc1 [Compound 456, 1-(4-acetylphenyl)-3-(2,3-dihydro-1H-inden-5-yl)urea] | < 2000
40 | Cc1ccc(NC(=O)Nc2cccc(C#N)c2)cc1Cl [Compound 457, 1-(3-chloro-4-methylphenyl)-3-(3-cyanophenyl)urea] | < 2000
41 | Cc1cccc(NC(=O)Nc2ccc(CC#N)cc2)c1 [Compound 459, 1-[4-(cyanomethyl)phenyl]-3-(3-methylphenyl)urea] | < 2000
42 | Cc1ccc(NC(=O)Nc2ccc(CC#N)cc2)cc1 [Compound 460, 1-[4-(cyanomethyl)phenyl]-3-(4-methylphenyl)urea] | < 2000
